In publication PMC8214221, “Sequence determinants in the cathelicidin LL-37 that promote inflammation via presentation of RNA to scavenger receptors” (The Journal of Biological Chemistry, 2021):
Where two headings read alike, the source gives them in different places. Residues, ends and D or L forms follow the SMILES beside them.

Tests used:
[1] = test system: normal human epidermal keratinocytes (NHEKs); experiment: LDH release cytotoxicity assay in keratinocytes; assay type: cell-based; settings: minimal concentration giving 50% LDH release by NHEKs
Procedure, shortened: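 Normal human epidermal keratinocytes were exposed to LL-34 parent and alanine-substituted peptides. Cytotoxicity was read as LDH release in fresh culture supernatants after treatment, using a commercial kit, and reported as the minimal concentration showing toxicity.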

[2] = test system: methicillin-resistant Staphylococcus aureus strain USA300; assay type: cell-based; settings: MIC comparison with parent (MIC 25 μM), 18 h
Description: Since LL-34 was the minimal truncation mutant of LL-37 that retained both antimicrobial and immune modulatory activity, we prepared a series of synthetic peptides with sequential substitutions of alanine at each amino acid position of the LL-34 parent peptide (Table 1). We compared the minimum inhibitory concentration (MIC) for the LL-34 parent peptide and the alanine mutants (LL-34 peptides—L1A and R34A) against methicillin-resistant Staphylococcus aureus strain USA300 (Fig. 1A). LL-34 peptides were incubated at concentrations of 0 to 100 μM with bacteria. The minimal concentration at which no growth was observed was noted after 18 h of incubation. […] Because of these changes in the MIC against S. aureus between the mutants, we investigated the effective toxicity profile of the peptides in normal human epidermal keratinocytes (NHEKs) by lactate dehydrogenase (LDH) release assay (Table 1). […] Most other peptides were cytotoxic at a minimal concentration of 10 μM, whereas LL-34—K15A was toxic at a concentration of 2.5 μM.
Methicillin-resistant S. aureus USA300 and methicillin-sensitive S. aureus SA113 (American Type Culture Collection 35556) were cultured in 3% tryptic soy broth overnight at 37 °C with shaking at 250 rpm. GAS M49 strain NZ131 was cultured in Todd Hewitt broth supplemented with 1% yeast extract overnight at 37 °C without shaking. E. coli R1 strain RS218 was cultured in LB broth overnight at 37 °C with shaking at 250 rpm. MIC values were determined using a round-bottom 96-well microdilution method with RPMI cell culture media (as a source of Ca^2+ and Mg^2+) supplemented with tryptic soy broth, Todd Hewitt broth/yeast extract, or LB to facilitate growth of the respective bacterial strains. Overnight bacterial cultures were subcultured into fresh broth and grown to midlate log phase indicated by an absorbance at 600 nm value between 0.8 and 1.0 for each bacterial strain. The absorbance was then normalized to provide a concentration of 1 × 10^7 colony-forming units/ml in RPMI medium. The LL-34 parent and alanine scan mutants were serially diluted into the 96-well microtiter plates containing prewarmed RPMI bacterial growth medium. A 10 μl aliquot of the midlate log phase bacteria was inoculated into the 96-well microtiter plates that contained 95 μl of RPMI medium with or without the LL-34 peptide dilutions and incubated for 16 to 18 h at […] with shaking at 200 rpm. Inhibition of growth was determined by measuring the absorbance at 600 nm readings of each well using a microplate reader (Infinite M200 Pro; Tecan). The MIC of each bacterial strain was determined by the lowest peptide concentration that inhibited more than 80% bacterial growth.

[3] = test system: NHEKs, IL-6 secretion in response to U1 dsRNA; experiment: IL-6 secretion ELISA in NHEKs; assay type: cell-based, human; settings: U1 dsRNA 2.5 μg/ml + peptide 2 μM, 18 h, n = 3
Method: Protein levels of human IL-6 were analyzed from cell supernatant with ELISA (n = 3). Corresponding MIC values of LL-34 peptides L1A–R34A against Staphylococcus aureus USA300 are shown in the heat map. B, human dermal endothelial cells (HDMECs) were treated with either U1 dsRNA (2.5 μg/ml) or a combination of U1 dsRNA (2.5 μg/ml) and LL-34 peptides (Pep 1–Pep 34 and Pep–parent LL-34) at 2 μM for 18 h. IL-6 ELISA results are shown (n = 3). Green bars denote loss of IL-6 protein secretion compared with parent control shown in red. C, helical wheel plot for LL-34. Amino acids with green circles denote specific residues where replacement with an alanine caused the loss of IL-6 secretion compared with parent LL-34 peptide in NHEKs cotreated with U1 dsRNA. D, in the helical wheel plot for LL-34, circled green amino acids indicate that a substitution caused a loss of vetting in HDMEC. E–H, NHEKs were treated with LL-34-parent peptide (LL-34-P), LL-34-F5A, LL-34-I24A, LL-34-F27A, and LL-34-L31A at 2 μM, either individually or in combination with U1 dsRNA (2.5 μg/ml) for 8 h. Gene expression of IL-6, IFNB1, TSLP, and CXCL10 was assessed with qRT-PCR. GAPDH was used as a reference gene (n = 3) (∗p < 0.05; ∗∗∗∗p < 0.0001). One way-ANOVA was used. IL-6, interleukin 6; LL-34, 34-amino acid peptide; MIC, minimum inhibitory concentration, ns, not significant.
We hypothesized that sequential replacement of each amino acid in LL-34 peptide with a neutral amino acid alanine might reveal the amino acid residues critical for its ability to induce inflammation in response to U1 dsRNA. First, we treated NHEKs and human dermal microvascular endothelial cells (HDMECs) with LL-34 parent peptide and each of the 34 mutants at 2 μM for 18 h and measured the secretion of interleukin 6 (IL-6) in the supernatant by ELISA (Fig. S1, A and B). […] We then treated both NHEKs and HDMECs with a combination of U1 dsRNA (2.5 μg/ml) and the LL-34 parent/mutant peptides at 2 μM for 18 h and measured IL-6 secretion (Fig. 1, A–C). […] A similar pattern of IL-6 release was observed when HDMECs were treated with the peptide library and U1 dsRNA (Fig. 1B).
Cell culture supernatant was frozen at −80 °C until use for analysis. ELISA was performed with sandwich ELISA kits (R&D Systems) and quantified on a Spectramax Absorbance reader (Molecular Biosystems). Data were analyzed with GraphPad.

| Structure (SMILES) | Minimal cytotoxic concentration in NHEK (LD50) [1] | Antimicrobial potency against S. aureus USA300 compared with LL-34 parent peptide [2] | Antimicrobial potency against S. aureus USA300 compared with LL-34 parent peptide ([2]; listed as IL3a) | IL-6 protein secretion, cotreatment with U1 dsRNA, vs U1 dsRNA + LL-34 parent [3] |
| --- | --- | --- | --- | --- |
| CC[C@H](C)[C@H](NC(=O)[C@H](CCCNC(=N)N)NC(=O)[C@H](CCC(N)=O)NC(=O)[C@@H](NC(=O)[C@@H](NC(=O)[C@H](CCCNC(=N)N)NC(=O)[C@H](CCCCN)NC(=O)[C@H](Cc1ccccc1)NC(=O)[C@H](CCC(=O)O)NC(=O)[C@H](CCCCN)NC(=O)CNC(=O)[C@H](C)NC(=O)[C@H](CCCCN)NC(=O)[C@H](CCC(=O)O)NC(=O)[C@H](CCCCN)NC(=O)[C@H](CO)NC(=O)[C@H](CCCCN)NC(=O)[C@H](CCCNC(=N)N)NC(=O)[C@H](Cc1ccccc1)NC(=O)[C@H](Cc1ccccc1)NC(=O)[C@H](CC(=O)O)NC(=O)CNC(=O)[C@H](CC(C)C)NC(=O)[C@@H](N)CC(C)C)[C@@H](C)CC)C(C)C)C(=O)N[C@@H](CCCCN)C(=O)N[C@@H](CC(=O)O)C(=O)N[C@@H](Cc1ccccc1)C(=O)N[C@@H](CC(C)C)C(=O)N[C@@H](CCCNC(=N)N)C(=O)N[C@@H](CC(N)=O)C(=O)N[C@@H](CC(C)C)C(=O)N[C@H](C(=O)N1CCC[C@H]1C(=O)N[C@@H](CCCNC(=N)N)C(=O)O)C(C)C [LL-34—I13A] (H-LLGDFFRKSKEKAGKEFKRIVQRIKDFLRNLVPR-OH) | 5 µM | killed S. aureus USA300 more potently | gained antimicrobial activity | reduced secretion of IL-6 protein |
| CC[C@H](C)[C@H](NC(=O)[C@H](CCCCN)NC(=O)[C@H](CCC(=O)O)NC(=O)[C@H](CCCCN)NC(=O)[C@H](CO)NC(=O)[C@H](CCCCN)NC(=O)[C@H](CCCNC(=N)N)NC(=O)[C@H](Cc1ccccc1)NC(=O)[C@H](Cc1ccccc1)NC(=O)[C@H](CC(=O)O)NC(=O)CNC(=O)[C@H](CC(C)C)NC(=O)[C@@H](N)CC(C)C)C(=O)NCC(=O)N[C@@H](CCCCN)C(=O)N[C@@H](CCC(=O)O)C(=O)N[C@@H](Cc1ccccc1)C(=O)N[C@@H](CCCCN)C(=O)N[C@@H](CCCNC(=N)N)C(=O)N[C@H](C(=O)N[C@H](C(=O)N[C@@H](CCC(N)=O)C(=O)N[C@@H](CCCNC(=N)N)C(=O)N[C@H](C(=O)N[C@@H](CCCCN)C(=O)N[C@@H](CC(=O)O)C(=O)N[C@@H](Cc1ccccc1)C(=O)N[C@@H](C)C(=O)N[C@@H](CCCNC(=N)N)C(=O)N[C@@H](CC(N)=O)C(=O)N[C@@H](CC(C)C)C(=O)N[C@H](C(=O)N1CCC[C@H]1C(=O)N[C@@H](CCCNC(=N)N)C(=O)O)C(C)C)[C@@H](C)CC)C(C)C)[C@@H](C)CC [LL-34—L28A] (H-LLGDFFRKSKEKIGKEFKRIVQRIKDFARNLVPR-OH) | 5 µM | killed S. aureus USA300 more potently |  | reduced secretion of IL-6 protein |
| CC[C@H](C)[C@H](NC(=O)[C@H](C)NC(=O)[C@H](CCC(=O)O)NC(=O)[C@H](CCCCN)NC(=O)[C@H](CO)NC(=O)[C@H](CCCCN)NC(=O)[C@H](CCCNC(=N)N)NC(=O)[C@H](Cc1ccccc1)NC(=O)[C@H](Cc1ccccc1)NC(=O)[C@H](CC(=O)O)NC(=O)CNC(=O)[C@H](CC(C)C)NC(=O)[C@@H](N)CC(C)C)C(=O)NCC(=O)N[C@@H](CCCCN)C(=O)N[C@@H](CCC(=O)O)C(=O)N[C@@H](Cc1ccccc1)C(=O)N[C@@H](CCCCN)C(=O)N[C@@H](CCCNC(=N)N)C(=O)N[C@H](C(=O)N[C@H](C(=O)N[C@@H](CCC(N)=O)C(=O)N[C@@H](CCCNC(=N)N)C(=O)N[C@H](C(=O)N[C@@H](CCCCN)C(=O)N[C@@H](CC(=O)O)C(=O)N[C@@H](Cc1ccccc1)C(=O)N[C@@H](CC(C)C)C(=O)N[C@@H](CCCNC(=N)N)C(=O)N[C@@H](CC(N)=O)C(=O)N[C@@H](CC(C)C)C(=O)N[C@H](C(=O)N1CCC[C@H]1C(=O)N[C@@H](CCCNC(=N)N)C(=O)O)C(C)C)[C@@H](C)CC)C(C)C)[C@@H](C)CC [LL-34—K12A] (H-LLGDFFRKSKEAIGKEFKRIVQRIKDFLRNLVPR-OH) | 5 µM | reduced MIC compared with the parent peptide |  | reduced secretion of IL-6 protein |
